Results as given in PMC11864979, “First-in-class ultralong-target-residence-time p38α inhibitors as a mitosis-targeted therapy for colorectal cancer” (Nature Cancer, 2025).
Where “and” joins values, the source holds several entries; their conditions need not be identical. Identical values can stand only once.

Tests used:
KAP^2D cells [1] = test: western blot analysis of p38α signaling in KAP^2D cells; type: cell-based, mouse; settings: 1 µM, 1 day
Procedure: Proteins were extracted from cells and organoids using radioimmunoprecipitation assay extraction buffer (50 mM Tris pH 8.0, 150 mM NaCl, 1% Triton X-100, 0.5% sodium deoxycholate, 0.1% SDS, 5 mM EDTA and 1 mM EGTA) supplemented with protease and phosphatase inhibitors (cOmplete and PhosSTOP, Roche). Protein concentrations were measured using the DC (detergent compatible) Protein Assay (Bio-Rad). Briefly, 20–30 µg of protein was separated by SDS–PAGE and transferred onto PVDF membranes (Immobilon-P, Millipore). Membranes were blocked in 5% BSA and Tris-buffered saline (TBS)–Tween buffer and then incubated with primary antibodies overnight at 4 °C and with horseradish peroxidase-conjugated secondary antibodies for 1 h at room temperature. All used antibodies and dilutions are listed in the Nature Portfolio Reporting Summary. The blots were visualized using the ChemiDoc MP Imaging System (BIO-RAD) and ImageLab version 5.2.1 software. Vinculin and β-actin were used as loading controls.

KAP^2D cells [2] = test: SA-β-Gal senescence staining and senescence markers in CRC cells and organoids; type: cell-based, mouse; settings: 5 days
Procedure: SA-β-Gal staining was carried out on sections of snap-frozen tumor tissues. The samples were fixed with 0.5% glutaraldehyde solution (in PBS pH 7.4) for 15 min at room temperature and then washed once with PBS and twice with 1 mM MgCl2 in PBS pH 5.5 (5 min each, at room temperature). Subsequently, the samples were incubated with X-Gal solution (2.45 mM X-Gal, 5 mM K3Fe(CN)6, 5 mM K4Fe(CN)6 and 1 mM MgCl2 in PBS pH 5.5) at 37 °C overnight protected from light. Upon staining, the samples were washed three times with PBS (5 min each), fixed with 4% formalin in PBS for 30 min and again washed with PBS (5 min each, at room temperature).
Immunofluorescence staining on cells and organoids was performed on glass coverslips or tissue culture chambers (Sarstedt). Organoids were plated in medium containing 10% Matrigel or Cultrex BME. The cultures were fixed with 4% paraformaldehyde and stained with specific antibodies and DAPI (Vector Labs). All used antibodies and dilutions are listed in the Nature Portfolio Reporting Summary. For analyzing DNA synthesis, the Molecular Probes Click-iT EdU Alexa Fluor 555 kit was used 24 h after EdU incorporation with DAPI counterstaining. SA-β-Gal staining of cells was performed in cell culture dishes (cells) or tissue culture chambers (organoids) after fixation with 0.5% glutaraldehyde as described above. […]

KAP^2D cells [3] = test: cell size and DNA content analysis in KAP^2D cells (flow cytometry); type: cell-based, mouse; settings: 1 µM, 1 day
Procedure: For DNA content analysis, cells were fixed with ethanol, washed and resuspended in PBS containing 50 µg ml^−1 propidium iodide (Invitrogen) and 250 µg ml^−1 RNase A (Qiagen). Apoptosis was analyzed with the FITC annexin V apoptosis detection kit (Biolegend). Both measurements were performed with FACS Canto II (BD) and physical parameters were used to exclude cell debris and cell doublets.

[4] = weight development of treated mice; type: in vivo, mouse
Procedure: No mice were excluded during treatment studies. […] GFP imaging of tumors was performed using a Hamamatsu imaging system. For quantification of compounds in the murine plasma, 20 μl of tail-vein blood was diluted with 80 μl of heparin solution, before 200 μl of ice-cold acetonitrile with a defined internal standard was added. The samples were sonicated and centrifuged and the supernatant was subjected to liquid chromatography-mass spectrometry quantification. Full blood analyses were performed with the Sysmex KX-21N hematology analyzer.

[5] = tested on: subcutaneous human PDO6 CRCs; test: treatment of subcutaneous human PDO6 CRCs in CB17 Scid beige mice; type: in vivo, mouse
Procedure: Subcutaneous injection, splenic seeding or cecum injection of organoids was performed in 8–10-week-old C57BL/6 N/Crl, Rag2^−/− (B6.Cg-Rag2^tm1.1Cgn/J), or CB17 Scid beige (CB17.Cg-Prkdc^scidLyst^bg-J/Crl) mice, obtained from Charles River. The organoids were dissociated into single cells, washed with PBS and injected in a 1:1 mixture of PBS and Matrigel. For murine organoids, 1 × 10^5 cells were injected into the left and right flanks or the spleen capsule and 2 × 10^6 cells were injected into the cecum wall. For human organoids, 4 × 10^5 cells were injected into the flanks of CB17 Scid beige mice. For splenic seeding and cecum injection, mice were anaesthetized using ketamine (100 mg kg^−1, intraperitoneally) and xylazin (10 mg/kg, intraperitoneally) in NaCl and a small laparotomy below the thorax was performed. Upon injection, the puncture region was washed with prewarmed H2O. Within the first week after operation, the mice were treated with the analgesics carprofen and metamizol. The maximum size of individual tumor nodules permitted by the regional authority of the state of Baden-Wuerttemberg (Regierungspraesidium Tübingen: subcutaneous tumor nodules, 1 cm; other tumor nodules, 0.5 cm) was not exceeded.

[6] = tested on: KAP liver metastasis in Rag2^−/− mice; test: survival of Rag2^−/− mice with KAP liver metastasis; type: in vivo, mouse
Procedure: Subcutaneous injection, splenic seeding or cecum injection of organoids was performed in 8–10-week-old C57BL/6 N/Crl, Rag2^−/− (B6.Cg-Rag2^tm1.1Cgn/J), or CB17 Scid beige (CB17.Cg-Prkdc^scidLyst^bg-J/Crl) mice, obtained from Charles River. The organoids were dissociated into single cells, washed with PBS and injected in a 1:1 mixture of PBS and Matrigel. For murine organoids, 1 × 10^5 cells were injected into the left and right flanks or the spleen capsule and 2 × 10^6 cells were injected into the cecum wall. For human organoids, 4 × 10^5 cells were injected into the flanks of CB17 Scid beige mice. For splenic seeding and cecum injection, mice were anaesthetized using ketamine (100 mg kg^−1, intraperitoneally) and xylazin (10 mg/kg, intraperitoneally) in NaCl and a small laparotomy below the thorax was performed.

[7] = histological evaluation of small intestine, colon and liver of treated mice; type: in vivo, mouse
Procedure: Histopathological evaluation of colorectal tumors and healthy tissues was performed by experienced pathologists (S.S. for murine or human tumors and tissues; G.O. for human tumors). Hematoxylin and eosin (H&E) staining was performed on paraffin-embedded sections using 0.5% eosin and 0.5% hematoxylin.

[8] = tested on: KAP-shMapk14 and KAP-shNC organoids; test: cell viability in KAP-shMapk14 and KAP-shNC organoids treated with doxycycline and 2015; type: cell-based, mouse; design: Cell viability (%): concentration or dose not given beside the values; settings: for Cell viability (%): individual replicates, relative to shNC + DMSO
Procedure: To produce retroviral particles, Phoenix packaging cells were transfected with retroviral DNA (pRT3GEPIR and pR-BRAF^V600E-Puro) through calcium phosphate transfection. The viral supernatant, supplemented with polybrene (5 µg ml^−1) was applied on cells or dissociated organoids and the infected cultures were selected with puromycin (3 µg ml^−1). Expression of shRNAs and GFP was induced with 5 µg ml^−1 doxycycline (Sigma).
For in vitro treatment studies, organoids were mechanically dissociated and digested using TrypLE supplemented with 100 µg ml^−1 DNaseI and 10.5 µM Y-27632 dihydrochloride (Invitrogen) at 37 °C. A total of 1,000–2,000 single cells were plated per well in white 96-well plates (Greiner) in culture medium containing 10% GFR Matrigel or Cultrex BME. The treatment with doxycycline (5 µg ml^−1), pharmacological inhibitors or corresponding volumes of DMSO was started 24 h after plating. Doxycycline was obtained from Sigma-Aldrich. […] Cell viability was measured by means of CellTiter-Glo 3D or CellTiter-Glo 2.0 reagent (Promega) according to the manufacturers’ instructions and the Infinite M Plex reader (Tecan, i-control version 3.9.1 software). Results were normalized to vehicle (DMSO) or to shNC. For cell-doubling assays, the cell number was quantified at the corresponding time points using Guava EasyCyte flow cytometer (Luminex, CytoSoft v5.2 software).

Q: For `O=C(NCCN1CCOCC1)c1ccc2c(c1)C(=O)c1ccc(Nc3ccc(F)c(NC(=O)c4ccccc4)c3)cc1CC2` [Compound 1639], which “MK2^T334 phosphorylation (in words)” value (KAP^2D cells [1]) is on record?
A: reduced MK2^T334 phosphorylation

Q: Which “senescence (SA-β-Gal, p16^Ink4a, HMGA2) (in words)” value (KAP^2D cells [2]) does the source give for `CNC(=O)c1ccc2c(c1)C(=O)c1ccc(Nc3ccc(F)c(NC(=O)C4CC4)c3)cc1CC2` [Compound 2015] here?
A: clear senescence phenotype

Q: What about the “DNA content (in words)” value (KAP^2D cells [3]) of the same molecule?
A: strong induction of aneuploidy and polyploidy

Q: What about the “Weight development (%)” value ([4]; day 12) of the same molecule?
A: 100.0% and 97.9% and 100.9% and 99.3% and 97.1%

Q: And the “Weight development (%)” value ([4]; day 14)?
A: 100.9% and 97.9% and 97.4% and 99.6% and 101.1% and 98.2% and 100.0%

Q: What about the “Weight development (%)” value ([4]; day 16) of the same molecule?
A: 102.6% and 98.7% and 97.0% and 100.9% and 101.1% and 99.3%

Q: And the “Weight development (%)” value ([4]; day 18)?
A: 103.8% and 98.7% and 97.4% and 101.3% and 100.7% and 100.0% and 101.8%

Q: And the “Weight development (%)” value ([4]; day 20)?
A: 102.6% and 98.7% and 97.9% and 101.3% and 100.4% and 100.0%

Q: And the “Weight development (%)” value ([4]; day 22)?
A: 106.4% and 100.4% and 98.7% and 100.0% and 103.3% and 101.1% and 101.4%

Q: And the “Weight development (%)” value ([4]; day 24)?
A: 105.1% and 103.0% and 100.0% and 101.8% and 100.4% and 101.1%

Q: What about the “Weight development (%)” value ([4]; day 26) of the same molecule?
A: 106.4% and 100.8% and 101.7% and 102.2% and 101.5% and 100.4% and 101.1%

Q: What about the “Weight development (%)” value ([4]; day 28) of the same molecule?
A: 106.8% and 103.4% and 100.9% and 101.3% and 103.7% and 100.7% and 101.1%

Q: And the “Weight development (%)” value ([4]; day 30)?
A: 110.3% and 105.1% and 101.7% and 105.3% and 101.5% and 100.7% and 101.1%

Q: What about the “Weight development (%)” value ([4]; day 32) of the same molecule?
A: 106.0% and 105.5% and 102.6% and 102.2% and 102.9% and 101.4%

Q: And the “Weight development (%)” value ([4]; day 34)?
A: 106.8% and 104.7% and 100.9% and 103.5% and 106.2% and 101.1% and 100.4%

Q: What about the “Weight development (%)” value ([4]; day 36) of the same molecule?
A: 108.1% and 103.8% and 103.9% and 105.7% and 107.0% and 99.6% and 100.0%

Q: And the “Weight development (%)” value ([4]; day 38)?
A: 109.8% and 107.2% and 103.0% and 106.1% and 109.9% and 100.7% and 101.4%

Q: What about the “Weight development (%)” value ([4]; day 40) of the same molecule?
A: 110.3% and 103.4% and 103.0% and 106.6% and 100.7% and 99.3%

Q: What about the “Weight development (%)” value ([4]; day 42) of the same molecule?
A: 109.4% and 106.4%

Q: And the “body weight over time (in words)” value ([4]; mouse, in vivo)?
A: did not lose body weight

Q: What about the Tumor weight ([5]; individual subcutaneous PDO6 tumors, treated 4 weeks) of the same molecule?
A: 25 g and 16 g and 4 g and 32 g

Q: What about the “tumor size of PDO6-derived CRCs (in words)” value ([5]; treated for 4 weeks) of the same molecule?
A: strong reduction in tumor size

Q: And the “treatment response in Rag2^−/− mice (in words)” value ([6]; KAP liver metastasis)?
A: strong treatment response

Q: And the Survival ([6]; single animals, 1 = event, Fig. 6i)?
A: 40 d of treatment and 34 d of treatment and 32 d of treatment and 39 d of treatment and 38 d of treatment and 25 d of treatment

Q: What about the “intestinal epithelium (in words)” value ([7]; 4 days or 10 weeks daily treatment) of the same molecule?
A: did not influence the regeneration of intestinal epithelium

Q: And the “liver damage (in words)” value ([7]; short-term and long-term treatment)?
A: no signs for liver damage

Q: And the “MK2^T334 phosphorylation (in words)” value (KAP^2D cells [1])?
A: strongly reduced

Q: What about the “response of KAP-shMapk14.2605 organoids (in words)” value ([8]; doxycycline-induced Mapk14-shRNA expression) of the same molecule?
A: did not respond

Q: And the “Cell viability (%)” value ([8]; shMapk14.2605 + 2015)?
A: 22.20% and 48.13% and 45.94%

Q: What about the “Cell viability (%)” value ([8]; shNC + 2015) of the same molecule?
A: 31.98% and 25.43% and 20.36%
